Literature values in US20250231185A1, “Coronavirus T Cell Epitopes, Megapools and Uses Thereof” (La Jolla Institute for Immunology, priority 2021, published 2025).
Where two headings read alike, the source gives them in different places.

Test system: CD8+ T cells
Conditions: cited from earlier work
[1] = CD8RE megapool peptides (non-spike SARS-CoV-2 antigens), dominant epitope Yes/No
[2] = T cell type (CD4 or CD8) recognizing the SARS-CoV-2 epitope
[3] = CD8R (D) megapool epitopes, dominant = recognized by 3 or more donors/different studies
[4] = T cell subset (CD4 or CD8) recognizing the SARS-CoV-2-derived epitope
[5] = SARS-CoV-2 Ag S, T cell type recognizing the epitope
[6] = SARS-CoV-2-derived CD8 epitopes, dominant = recognized by 3 or more donors/different studies

## 2921 (RIRGGDGKMK) [compound 2921]
[1]
  Dominant: Yes (more dominant epitopes are defined by being recognized by 3 or more donors/different studies)

## 2985 (NLWNTFTRL) [compound 2985]
[1]
  Dominant: Yes (more dominant epitopes are defined by being recognized by 3 or more donors/different studies)

## 974 (TITQMNLKY) [compound 974]
[2]
  Restriction: CD8

## 1788 (SMWALIISV) [compound 1788]
[3]
  Dominant: Yes (more dominant epitopes are defined by being recognized by 3 or more donors/different studies)

## 676 (VRETMSYLF) [compound 676]
[4]
  Restriction: CD8

## 2996 (FGDDTVIEV) [compound 2996]
[1]
  Dominant: Yes (more dominant epitopes are defined by being recognized by 3 or more donors/different studies)

## 1737 (SSNVANYQK) [compound 1737]
[3]
  Dominant: Yes (more dominant epitopes are defined by being recognized by 3 or more donors/different studies)

## 1741 (VLWAHGFEL) [compound 1741]
[3]
  Dominant: Yes (more dominant epitopes are defined by being recognized by 3 or more donors/different studies)

## 641 (TISLAGSYK) [compound 641]
[4]
  Restriction: CD8

## 577 (YEKLKPVL) [compound 577]
[4]
  Restriction: CD8

## 1719 (ISDYDYYRY) [compound 1719]
[3]
  Dominant: Yes (more dominant epitopes are defined by being recognized by 3 or more donors/different studies)

## 1810 (HLVDFQVTI) [compound 1810]
[3]
  Dominant: Yes (more dominant epitopes are defined by being recognized by 3 or more donors/different studies)

## 1310 (FERDISTEIY) [compound 1310]
[5]
  Restriction: CD8

## 1811 (QLRARSVSPK) [compound 1811]
[3]
  Dominant: Yes (more dominant epitopes are defined by being recognized by 3 or more donors/different studies)

## 1059 (YKIEELFYSY) [compound 1059]
[2]
  Restriction: CD8

## 1086 (VAMPNLYKM) [compound 1086]
[2]
  Restriction: CD8

## 538 (ASAFFGMSR) [compound 538]
[6]
  Dominant: Yes (more dominant epitopes are defined by being recognized by 3 or more donors/different studies)
[4]
  Restriction: CD8

## 2905 (FLFLTWICL) [compound 2905]
[1]
  Dominant: Yes (more dominant epitopes are defined by being recognized by 3 or more donors/different studies)

## 918 (VPANSTVL) [compound 918]
[2]
  Restriction: CD8

## 644 (YYTSNPTTF) [compound 644]
[4]
  Restriction: CD8

## 648 (GEVITFDNL) [compound 648]
[4]
  Restriction: CD8

## 1748 (MMISAGFSL) [compound 1748]
[3]
  Dominant: Yes (more dominant epitopes are defined by being recognized by 3 or more donors/different studies)

## 1081 (LLLDDFVEI) [compound 1081]
[2]
  Restriction: CD8

## 3012 (TSEDMLNPNY) [compound 3012]
[1]
  Dominant: Yes (more dominant epitopes are defined by being recognized by 3 or more donors/different studies)

## 2948 (DLKGKYVQI) [compound 2948]
[1]
  Dominant: Yes (more dominant epitopes are defined by being recognized by 3 or more donors/different studies)

## 948 (TSFGPLVRK) [compound 948]
[2]
  Restriction: CD8

## 2940 (MEVTPSGTWL) [compound 2940]
[1]
  Dominant: Yes (more dominant epitopes are defined by being recognized by 3 or more donors/different studies)

## 1738 (VYIGDPAQL) [compound 1738]
[3]
  Dominant: Yes (more dominant epitopes are defined by being recognized by 3 or more donors/different studies)

## 938 (SLLMPILTL) [compound 938]
[2]
  Restriction: CD8

## 1001 (LVKQGDDYVY) [compound 1001]
[2]
  Restriction: CD8

## 1432 (HVTYVPAQEK) [compound 1432]
[5]
  Restriction: CD8

## 3006 (QLMCQPILLL) [compound 3006]
[1]
  Dominant: Yes (more dominant epitopes are defined by being recognized by 3 or more donors/different studies)

## 520 (LLLDRLNQL) [compound 520]
[6]
  Dominant: Yes (more dominant epitopes are defined by being recognized by 3 or more donors/different studies)
[4]
  Restriction: CD8

## 2917 (NTASWFTAL) [compound 2917]
[1]
  Dominant: Yes (more dominant epitopes are defined by being recognized by 3 or more donors/different studies)

## 1011 (YADVFHLYL) [compound 1011]
[2]
  Restriction: CD8

## 982 (MPNMLRIMASL) [compound 982]
[2]
  Restriction: CD8

## 623 (LVSDIDITF) [compound 623]
[4]
  Restriction: CD8

## 596 (DDYQGKPLEF) [compound 596]
[4]
  Restriction: CD8

## 1377 (ILPDPSKPSK) [compound 1377]
[5]
  Restriction: CD8

## 1034 (YQKVGMQKY) [compound 1034]
[2]
  Restriction: CD8

## 3002 (NYMPYFFTL) [compound 3002]
[1]
  Dominant: Yes (more dominant epitopes are defined by being recognized by 3 or more donors/different studies)

## 927 (NLIDSYFVV) [compound 927]
[2]
  Restriction: CD8

## 589 (ELDERIDKV) [compound 589]
[4]
  Restriction: CD8

## 615 (AVFDKNLYDK) [compound 615]
[4]
  Restriction: CD8

## 1714 (YTMADLVYAL) [compound 1714]
[3]
  Dominant: Yes (more dominant epitopes are defined by being recognized by 3 or more donors/different studies)

## 1348 (SPRRARSV) [compound 1348]
[5]
  Restriction: CD8

## 2918 (KFPRGQGVPI) [compound 2918]
[1]
  Dominant: Yes (more dominant epitopes are defined by being recognized by 3 or more donors/different studies)

## 611 (YENFNQHEV) [compound 611]
[4]
  Restriction: CD8

## 670 (YLATALLTL) [compound 670]
[6]
  Dominant: Yes (more dominant epitopes are defined by being recognized by 3 or more donors/different studies)
[4]
  Restriction: CD8

## 2906 (NRFLYIIKL) [compound 2906]
[1]
  Dominant: Yes (more dominant epitopes are defined by being recognized by 3 or more donors/different studies)

## FIAGLIAIV [SEQ ID NO: 1520]
Rha et al., 37 of 112 and 2 of 40 patients
  responses detected in patients: 5%

## 988 (RLANECAQV) [compound 988]
[2]
  Restriction: CD8

## 1802 (IPIQASLPF) [compound 1802]
[3]
  Dominant: Yes (more dominant epitopes are defined by being recognized by 3 or more donors/different studies)

## 681 (YTGNYQCGHY) [compound 681]
[4]
  Restriction: CD8

## 990 (TSSGDATTAY) [compound 990]
[2]
  Restriction: CD8

## 544 (VTPSGTWLTY) [compound 544]
[4]
  Restriction: CD8

## 578 (EIKESVQTF) [compound 578]
[4]
  Restriction: CD8

## 604 (IEVNSFSGY) [compound 604]
[4]
  Restriction: CD8

## 1328 (KFLPFQQFGR) [compound 1328]
[5]
  Restriction: CD8

## 696 (FADDLNQLTGY) [compound 696]
[6]
  Dominant: Yes (more dominant epitopes are defined by being recognized by 3 or more donors/different studies)
[4]
  Restriction: CD8

## 548 (LLNKHIDAY) [compound 548]
[4]
  Restriction: CD8

## 600 (LEMELTPVV) [compound 600]
[4]
  Restriction: CD8

## 1783 (FLNRFTTTL) [compound 1783]
[3]
  Dominant: Yes (more dominant epitopes are defined by being recognized by 3 or more donors/different studies)

## 642 (ISLAGSYKDW) [compound 642]
[4]
  Restriction: CD8

## 917 (YFIKGLNNL) [compound 917]
[2]
  Restriction: CD8

## 1076 (KVDGVVQQL) [compound 1076]
[2]
  Restriction: CD8

## 2914 (ATSRTLSYYK) [compound 2914]
[1]
  Dominant: Yes (more dominant epitopes are defined by being recognized by 3 or more donors/different studies)

## 1785 (FLLPSLATV) [compound 1785]
[3]
  Dominant: Yes (more dominant epitopes are defined by being recognized by 3 or more donors/different studies)

## VLNDILSRL [SEQ ID NO: 1508]
Habel et al., 14 peptides screened, HLA-A*02:01
  IFN-f response: less prominently recognized

## 3023 (SMWALIISV) [compound 3023]
[1]
  Dominant: Yes (more dominant epitopes are defined by being recognized by 3 or more donors/different studies)

## 509 (ATEGALNTPK) [compound 509]
[6]
  Dominant: Yes (more dominant epitopes are defined by being recognized by 3 or more donors/different studies)
[4]
  Restriction: CD8

## 1338 (RVYSTGSNV) [compound 1338]
[5]
  Restriction: CD8

## 506 (LPYGANKDGI) [compound 506]
[4]
  Restriction: CD8

## 699 (VVAIDYKHY) [compound 699]
[4]
  Restriction: CD8

## 610 (YIATNGPLK) [compound 610]
[4]
  Restriction: CD8

## 1703 (GMSRIGMEV) [compound 1703]
[3]
  Dominant: Yes (more dominant epitopes are defined by being recognized by 3 or more donors/different studies)

## 1397 (YENQKLIANQF) [compound 1397]
[5]
  Restriction: CD8

## 1728 (LYLQYIRKL) [compound 1728]
[3]
  Dominant: Yes (more dominant epitopes are defined by being recognized by 3 or more donors/different studies)

## 2972 (SSNVANYQK) [compound 2972]
[1]
  Dominant: Yes (more dominant epitopes are defined by being recognized by 3 or more donors/different studies)

## 554 (KKQQTVTLL) [compound 554]
[4]
  Restriction: CD8

## 1460 (QYIKWPWYIW) [compound 1460]
[5]
  Restriction: CD8

## 3036 (FVRATATIPI) [compound 3036]
[1]
  Dominant: Yes (more dominant epitopes are defined by being recognized by 3 or more donors/different studies)

## 1467 (EPVLKGVKL) [compound 1467]
[5]
  Restriction: CD8

## 1804 (ALSKGVHFV) [compound 1804]
[3]
  Dominant: Yes (more dominant epitopes are defined by being recognized by 3 or more donors/different studies)

## 1395 (FAMQMAYRF) [compound 1395]
[5]
  Restriction: CD8

## 2920 (YYRRATRRIR) [compound 2920]
[1]
  Dominant: Yes (more dominant epitopes are defined by being recognized by 3 or more donors/different studies)
